Results as given in publication PMC7396997, “Discovery of 4-Anilinoquinolinylchalcone Derivatives as Potential NRF2 Activators” (Molecules, 2020).
Values joined by “and” are separate entries in the source; they are usually repeats but may differ in a detail not shown here. Equal entries are not always repeated.

What was measured:
NRF2 [1] = assay: Western blot of NRF2 protein in HaCaT cells; format: cell-based, human; details: 8 h
Description: (§1) To further evaluate the effect of compound 13b on NRF2 activation, the mRNA level of NRF2 target genes were determined by real-time PCR.
Cells were washed with PBS and harvested with RIPA lysis buffer (50 mM Tris (pH 7.5), 150 mM NaCl, 1% Tx-100) supplemented with protease and phosphatase inhibitors (1 mM PMSF, 10 μg/mL leupeptin, 50 μg/mL TLCK, 50 μg/mL TPCK, 1 μg/mL aprotinin, 1 mM NaF, 5 mM NaPPi, and 10 mM Na3VO4). The cell lysates were cleared via 10 min spins at 13,000 rpm, 4 °C. Protein concentrations were determined by a Bio-Rad Protein Assay (Bio-Rad, Hercules, CA, USA). Samples corresponded to 20 μg of protein were used for Western blot according to our previous publication. The following antibodies were used: anti-NRF2 (GeneTex, Irvine, CA, USA) and anti-GAPDH (Abcam, Cambridge, MA, USA).
(§2) Figure 5 The compound 13b increased the NRF2 expression at the protein level in the HaCaT cell. (A) HaCaT cells were treated with indicated concentrations of compound 13b for 8 h. Protein expression of NRF2 was determined by Western blot. (B) HaCaT cells were treated with indicated concentrations of 13b for 18 h. Total RNA was isolated and submitted to reverse transcription and real-time PCR for the detection of the NRF2 mRNA level.

HaCaT cells = assay: Cytotoxicity, 72 h resazurin cell viability assay; format: cell-based, human; details: HaCaT cells, 72 h; read-out: CC50
Description: Cells were seeded in a 96-well plate contained 100 μL culture medium in triplicate and treated with several compounds for 72 h. At the assay time point, resazurin (Cayman Chemical) was added and further incubated for 4 h at 37 °C. Fluorescence of the reduced resazurin was measured as described previously.
Figure 3 The cytotoxicity of 12b, 13b, and 14b in HaCaT cells. HaCaT cells were treated with indicated concentrations of these three compounds for 72 h. Cell viability was determined by a resazurin assay as described in the Materials and Methods section. Data presented as mean ± SD from three independent experiments.

HaCaT/ARE cells = assay: Cell viability (resazurin) in the reporter screen
Description: Immortalized human keratinocytes HaCaT were cultured in the Dulbecco’s modified Eagle’s medium (DMEM; Gibco BRL, Grand Island, NY, USA) with 10% heat-inactivated fetal bovine serum (HyClone, Logan, UT, USA), penicillin (100 U/mL), and streptomycin (100 μg/mL) in a humidified incubator with 5% CO2. HaCaT/ARE stable cells were grown in DMEM supplemented with 100 μg/mL of hygromycin.
HaCaT/ARE stable cells were seeded (1 × 10^4 cells/well) in a 96 well plate, then were treated with indicated concentrations of compounds for 18 h. At the assay time point, resazurin (Cayman Chemical, Ann Arbor, MI, USA) was added to a final concentration of 0.1 mg/mL and further incubated for 4 h at 37 °C. Fluorescence of the reduced resazurin (ex/em: 530 nm/590 nm) was measured from the culture supernatant by using a Synergy HT Multi-Mode Reader (BioTek, Winooski, VT, USA) to determine cell viability. The cells were then harvested for luciferase activity measurements according to the manufacturer’s protocol (Promega Corporation, Madison, WI, USA). Relative luciferase activity was calculated by normalizing luciferase activity to cell viability, and DMSO solvent control was used as 100% activity.

NRF2 mRNA = assay: qRT-PCR of NRF2 mRNA in HaCaT cells; format: cell-based, human; details: 18 h, real-time PCR
Description: as §1
(§3) RNA was prepared by using the TRIzol Reagent (Thermo Scientific, Madison, WI, USA) and was reverse transcribed into cDNA using a TOOLs Easy Fast RT Kit (TOOLs Biotechnology, New Taipei City, Taiwan). PCR was performed on an ABI StepOne Plus System (Applied Biosystems, Foster City, CA, USA) using the KAPA SYBR® FAST qPCR Master Mix (2X) Kit (Sigma-Aldrich, St. Louis, MO, USA). The mRNA level was normalized using the glyceraldehyde 3-phosphate dehydrogenase (GAPDH) mRNA level as the standard. The following primers were used: NRF2 forward: 5′-[…] and reverse: 5′-[…]; HO1 forward: 5′-GCCAGCAACAAAGTGCAAG and reverse: 5′-[…]; NQO1 forward: 5′-[…] and reverse: 5′-[…]; GCLC forward: 5′-[…] and reverse: 5′-[…]; G6PD forward: 5′-CAACATCGCCTGCGTTA and reverse: 5′-CTTGACCTTCTCATCACGG; and GAPDH forward: 5′-[…] and reverse: 5′-[…].
as §2

[2] = system: NRF2 target genes (HO1, G6PD, GCLC); assay: qRT-PCR of NRF2 target genes in HaCaT cells; format: cell-based, human; details: 18 h, real-time PCR
Description: as §1, §3
Figure 4 Compound 13b increased the expression of NRF2 target genes in the HaCaT cell. HaCaT cells were treated with indicated concentrations of 13b for 18 h. Total RNA was isolated and submitted to reverse transcription and real-time PCR for the detection of the NRF2 target genes including HO1 (A), GLCL (B), G6PD (C), and NQO1 (D). Data are expressed as normalized mRNA level and presented as mean ± SD from three independent experiments. The asterisk (*) indicates a significant difference between 13b treated groups and control group (* p< 0.05, *** p< 0.001, one-way ANOVA).

NRF2 [3] = assay: ARE-driven luciferase reporter assay (NRF2 activity) in HaCaT/ARE stable cells; format: cell-based, human
Source text: In this study, we used a stable ARE-driven reporter system to screen the potential NRF2 activators.

Substance: (E)-3-{4-[(4-acetylphenyl)amino]quinolin-2-yl}-1-(4-fluorophenyl)prop-2-en-1-one [13b]
- expression of NRF2 protein (NRF2 [1]): effectively enhance
- CC50 (HaCaT cells): > 100 µM
- survival rate (HaCaT/ARE cells; 10 µM): 96%
- Cell Viability (HaCaT/ARE cells; 10 μM, in % (unit assumed)): 95.7 ± 1.8
- mRNA of NRF2 (NRF2 mRNA): without altering
- G6PD mRNA expression [2]: significantly increased
- GCLC mRNA expression [2]: significantly increased
- HO1 mRNA expression [2]: significantly increased
- % of Relative NRF2 Activity in HaCaT Cell (NRF2 [3]; 10 μM, 24 h (b12; method b59 says 18 h), luciferase normalised to cell viability, DMSO control = 100%): 2205% and 2205.2 ± 144.9%
- EC50 (NRF2 [3]; HaCaT/ARE cells, 18 h, dose-response, read-out: EC50 of NRF2 promoter activity): 1.95 µM
